Results as given in patent US8722649B2, “Alpha-chloro and alpha-bromo phosphonate analogs of lysophosphatidic acid and methods of making and using thereof” (University of Utah Research Foundation, priority 2007, dated 2014).
Like-named read-outs stand apart in the source and are kept apart here.

Tests used:
[1] = target: T1, PPARγ (Homo sapiens, UniProt P37231); experiment: PPARγ activation assay (PPRE-Acox-Rluc reporter in CV-1 cells); assay type: cell-based; conditions: 10 μM test analogue, 20 h
T1 construct: expressed in transfected cells; host or cells: CV-1 cells, transient (LipofectAMINE 2000)
T1 sequence (P37231 1-505): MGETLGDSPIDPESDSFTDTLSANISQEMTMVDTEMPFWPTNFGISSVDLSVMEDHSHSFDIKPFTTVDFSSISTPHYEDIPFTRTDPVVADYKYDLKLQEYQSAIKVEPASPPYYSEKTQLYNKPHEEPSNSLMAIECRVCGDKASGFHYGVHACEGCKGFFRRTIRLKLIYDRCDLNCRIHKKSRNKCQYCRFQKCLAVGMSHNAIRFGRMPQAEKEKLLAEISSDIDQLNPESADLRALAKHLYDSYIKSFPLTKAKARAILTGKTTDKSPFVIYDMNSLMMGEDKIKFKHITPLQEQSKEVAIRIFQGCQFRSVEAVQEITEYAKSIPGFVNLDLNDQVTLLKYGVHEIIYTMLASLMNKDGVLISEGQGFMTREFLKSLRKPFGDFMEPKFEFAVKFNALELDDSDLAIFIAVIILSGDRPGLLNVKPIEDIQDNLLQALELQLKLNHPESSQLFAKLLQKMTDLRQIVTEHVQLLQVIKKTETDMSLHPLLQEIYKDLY
Method: PPARγ activation assay. PPARγ activation was performed using CV-1 cells transfected with an acyl-coenzyme A oxidase-luciferase (PPRE-Acox-Rluc) reporter gene construct as previously reported. Briefly, CV-1 cells were plated in 96-well plates at a density of 1×10^4 cells per well in Dulbecco's modified Eagle's medium supplemented with 10% fetal bovine serum. The next day, the cells were transiently transfected with 125 ng of pGL3-PPRE-Acox-Rluc, 62.5 ng of pcDNA3.1 PPARγ, and 12.5 ng of pSV-β-galactosidase (Promega) using LipofectAMINE 2000 (Invitrogen). Twenty-four hours after transfection, cells were treated with OptiMEM (Invitrogen) containing 10 μM Rosiglitazone or 10 μM of the test analogue dissolved in DMSO for 20 h. Luciferase and β-galactosidase activities were measured with Steady-Glo® Luciferase Assay System (Promega) and the Galacto-Light Plus™ system (Applied Biosystems), respectively. Samples were run in quadruplicate and the mean ±standard errors were calculated. Data are representative of at least two independent transfections.

[2] = target: T2, human LPA3 (Homo sapiens, UniProt Q9UBY5); experiment: Ca2+ mobilization assay, LPA3; assay type: cell-based; conditions: for LPA3 (Emax): Emax = (maximal efficacy of compound/maximal efficacy of LPA 18:1) × 100; for EC50: RH7777 cells stably expressing LPA3, agonist mode; for LPA3 ligand type: agonist/antagonist in words
T2 construct: expressed in transfected cells
T2 sequence (Q9UBY5 1-353): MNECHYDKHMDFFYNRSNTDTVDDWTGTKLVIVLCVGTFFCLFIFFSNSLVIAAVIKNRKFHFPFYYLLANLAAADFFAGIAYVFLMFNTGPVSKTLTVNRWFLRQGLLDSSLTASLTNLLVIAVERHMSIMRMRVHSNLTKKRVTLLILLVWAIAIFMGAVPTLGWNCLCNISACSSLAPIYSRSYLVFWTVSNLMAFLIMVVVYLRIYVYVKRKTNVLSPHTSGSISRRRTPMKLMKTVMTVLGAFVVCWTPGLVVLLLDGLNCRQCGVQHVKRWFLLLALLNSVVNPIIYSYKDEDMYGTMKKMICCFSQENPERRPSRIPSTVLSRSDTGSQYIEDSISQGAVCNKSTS
Method: Receptor activation using Ca^2+ mobilization assay for diastereomers of 1 (also represented as 19b). The rat hepatoma (RH7777) cell lines individually expressing either LPA1, LPA2, LPA3 or LPA5 receptors and Chinese hamster ovary (CHO) cell line were analyzed to examine agonism and antagonism. […] CHO cells stably expressing either vector or LPA4 were kindly gifted from Dr. Shimizu (University of Tokyo, Tokyo, Japan).
Stable transformants of LPA1/2/3 receptors. RH7777 cells stably expressing each receptor were plated onto poly-L-lysine (PLL) (0.1 mg/mL)-coated black-wall clear-bottom 96-well plates (Corning Incorporated Life Sciences, Acton, Mass.) at a density of 5×10^4 cells/well and cultured overnight. The following day, the culture medium was replaced with modified Krebs buffer (120 mM NaCl, 5 mM KCl, 0.62 mM MgSO4, 1.8 mM CaCl2, 10 mM HEPES, 6 mM glucose, pH 7.4), and the cells were serum starved for 6 h. Subsequently, cells were loaded with Fura-2 AM (Invitrogen, Carlsbad, Calif.) for 35 min in modified Krebs buffer containing 2% (v/v) pluronic acid.
After incubating the cells with Fura-2 AM, the cells were rinsed with Krebs buffer and changes in the intracellular Ca^2+ concentration were monitored by determining the ratio of emitted light intensities at 520 nm in response to excitation at 340 and 380 nm using FLEXstation II (Molecular Devices, Sunnyvale, Calif.). Each well was monitored for 80-120 sec. For testing agonist activity of the compounds, the test compounds were added automatically after 15 sec of baseline measurement. […] Each test was performed in quadruplicate. EC50, IC50, and Ki values were calculated by fitting a sigmoid function to data points with the nonlinear curve-fitting feature of KaleidaGraph (Synergy Software, Essex Junction, Vt.).
Receptor activation using Ca^2+ mobilization assay. The assay for mobilization of intracellular Ca^2+ was performed as described. Briefly, rat hepatoma RH7777 cells stably expressing human LPA1, LPA2, or LPA3, and CHO cells stably expressing LPA4, were loaded with Fura-2 AM (Molecular Probes). Using a FLEXStation (Molecular Devices, Sunnyvale, Calif.), changes in intracellular Ca^2+ concentration were monitored. Ligand-induced changes in fluorescence were monitored for 80-120 seconds. Ca^2+ transients were quantified automatically by calculating the difference between maximum and baseline ratio values for each sample. […] Each test was performed in quadruplicate. EC50, IC50, and Ki values were calculated as described. The ligand properties of the compounds were evaluated using Ca^2+ mobilization assay for assessing the activation/inhibition of LPA1, LPA2, and LPA3 expressed in RH7777 cells and LPA4 expressed in CHO cells.

[3] = antagonist mode vs 200 nM LPA, read-out: LPA3 (Ki)
[4] = diastereomer study, RH7777 cells, read-out: LPA3 IC50 (Table 2)
[5] = diastereomer study, RH7777 cells, read-out: LPA3 Ki (Table 2)

SMILES	PPARγ (PPRE luciferase reporter gene assay) [1]	LPA3 (Emax) [2]	EC50 [2]	other results
CCCCCCCCC=CCCCCCCCC(=O)OCC(O)CC(O)P(=O)([O-])O.[Na+] (mixture of isomers) [Compound 22a, reference compound]	NE (NE = no effect was shown at the highest concentration (30 μM) tested.)	(116 ± 9.5)	393 ± 89 nM	
CCCCCCCCCCCCCCCC(=O)OCC(O)CC(O)P(=O)([O-])O.[Na+] (mixture of isomers) [Compound 22b, reference compound]	NE (NE = no effect was shown at the highest concentration (30 μM) tested.)		> 30000 nM	
CCCCCCCCCCCCCCCC(=O)OC[C@@H](O)CCP(=O)([O-])O.[Na+] [Compound 20b, reference compound]	NE (NE = no effect was shown at the highest concentration (30 μM) tested.)		> 30000 nM	IC50 ([2]; antagonist mode vs 200 nM LPA, PA = partial antagonist, read-out: LPA3 IC50): 2560 ± 1160 nM; Ki [2, 3]: 961 nM
CCCCCCCCCCCCCCCC(=O)OC[C@@H](O)C[C@@H](Br)P(=O)(O)O [Compound 1a]				LPA3 ligand type [2]: Antagonist; IC50 [2, 4]: 4440 nM; Ki [2, 5]: 1830 nM
CCCCCCCC/C=C\CCCCCCCC(=O)OCC(O)CCP(=O)(O)O (stereo not shown) [Compound 20a, reference compound]	NE (NE = no effect was shown at the highest concentration (30 μM) tested.)	(63.5 ± 4.8)	> 1710 nM	
CCCCCCCCCCCCCCCC(=O)OC[C@@H](O)CC(Br)P(=O)(O)O (mixture of isomers) [Compound 1, [1-Bromo-3(S)-hydroxyl-4-(palmitoyloxy)butyl]-phosphonate]			> 30000 nM	Ki [2, 3]: 380 nM; inhibition at 30 µM ([2]; at 30 μM (200 nM LPA)): 71.3%; IC50 ([2]; read-out: LPA3 IC50): 1160 ± 259 nM
CCCCCCCCCCCCCCCC(=O)OC[C@@H](O)C[C@H](Br)P(=O)(O)O [Compound 1b]				LPA3 ligand type [2]: Antagonist; IC50 [2, 4]: 2090 nM; Ki [2, 5]: 623 nM
CCCCCCCCCCCCCCCC(=O)OCC(O)COP(=O)(O)O (stereo not shown) [LPA (16:0), reference compound]	NE (NE = no effect was shown at the highest concentration (30 μM) tested.)	(71.2 ± 2.9)	1530 ± 194 nM	
